Measurements as given in patent US10689401B2, “C5-C6-oxacyclic fused iminothiazine dioxide compounds bearing an ether linker as BACE inhibitors, compositions, and their use” (Merck Sharp & Dohme Corp., priority 2016, dated 2020).

Columns and labels:
[1] = biological target: purified human autoBACE-2 (Homo sapiens (Human), UniProt Q9Y5Z0); test: BACE-2 Assay (BACE-HTRF assay); assay type: biochemical; details: Ki calculated from IC50 using the Cheng-Prusoff equation; QSY7-EISEVNLDAEFC-Eu-amide substrate, pH 5.0
purified human autoBACE-2, sequence (Q9Y5Z0 63-518): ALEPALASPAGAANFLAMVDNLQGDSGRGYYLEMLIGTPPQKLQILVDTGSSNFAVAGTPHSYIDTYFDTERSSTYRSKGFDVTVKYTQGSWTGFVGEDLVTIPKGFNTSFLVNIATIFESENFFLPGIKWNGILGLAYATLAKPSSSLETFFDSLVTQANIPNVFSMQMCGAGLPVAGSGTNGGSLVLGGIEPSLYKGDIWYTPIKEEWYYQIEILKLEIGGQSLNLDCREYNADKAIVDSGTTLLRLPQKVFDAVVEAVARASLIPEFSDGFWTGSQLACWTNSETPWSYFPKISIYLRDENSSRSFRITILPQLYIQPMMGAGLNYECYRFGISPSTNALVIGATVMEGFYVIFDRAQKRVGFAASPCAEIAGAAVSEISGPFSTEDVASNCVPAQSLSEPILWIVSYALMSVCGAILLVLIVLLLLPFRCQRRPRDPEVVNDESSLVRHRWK
Description: Inhibitor IC50s at purified human autoBACE-2 are determined in a time-resolved endpoint proteolysis assay that measures hydrolysis of the QSY7-EISEVNLDAEFC-Eu-amide FRET peptide substrate (BACE-HTRF assay). BACE-mediated hydrolysis of this peptide results in an increase in relative fluorescence (RFU) at 620 nm after excitation with 320 nm light. Inhibitor compounds, prepared at 3× the desired final concentration in 1×BACE assay buffer (20 mM sodium acetate pH 5.0, 10% glycerol, 0.1% Brij-35) supplemented with 7.5% DMSO are preincubated with an equal volume of autoBACE-2 enzyme diluted in 1×BACE assay buffer (final enzyme concentration 1 nM) in black 384-well NUNC plates for 30 minutes at 30° C. […] DMSO is present at 5% final concentration in the assay. Following laser excitation of sample wells at 320 nm, the fluorescence signal at 620 nm is collected for 400 ms following a 50 μs delay on a RUBYstar HTRF plate reader (BMG Labtechnologies). Raw RFU data is normalized to maximum (1.0 nM BACE/DMSO) and minimum (no enzyme/DMSO) RFU values. IC50s are determined by nonlinear regression analysis (sigmoidal dose response, variable slope) of percent inhibition data with minimum and maximum values set to 0 and 100 percent respectively. Similar IC50s are obtained when using raw RFU data. The Ki values are calculated from the IC50 using the Cheng-Prusoff equation.

[2] = biological target: Recombinant human soluble BACE1 catalytic domain (Homo sapiens (Human), UniProt P56817); test: BACE1 HTRF FRET Assay; assay type: biochemical; details: for Ki: Ki calculated from IC50 using the Cheng-Prusoff equation, QSY7-APPswe-Eu substrate, pH 5.0, read-out: BACE-1 Ki; for inhibition at 10 µM: read-out: BACE-1 inhibition (printed in BACE-1 Ki column)
Recombinant human soluble BACE1 catalytic domain, sequence (P56817 75-416): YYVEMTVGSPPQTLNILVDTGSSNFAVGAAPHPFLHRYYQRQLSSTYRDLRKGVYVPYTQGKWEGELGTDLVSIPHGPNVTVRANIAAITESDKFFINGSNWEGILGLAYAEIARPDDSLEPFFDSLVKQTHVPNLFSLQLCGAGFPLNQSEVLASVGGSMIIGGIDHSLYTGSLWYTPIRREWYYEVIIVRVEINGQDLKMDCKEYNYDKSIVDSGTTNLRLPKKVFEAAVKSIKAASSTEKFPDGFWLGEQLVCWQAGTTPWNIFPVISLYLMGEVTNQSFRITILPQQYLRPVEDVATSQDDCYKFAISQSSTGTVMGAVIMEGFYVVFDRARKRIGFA
Description: Reagents: Na^+-Acetate pH 5.0; 1% Brij-35; Glycerol; Dimethyl Sulfoxide (DMSO); Recombinant human soluble BACE1 catalytic domain (>95% pure); APP Swedish mutant peptide substrate (QSY7-APP^swe-Eu): QSY7-EISEVNLDAEFC-Europium-amide.
A homogeneous time-resolved FRET assay can be used to determine IC50 values for inhibitors of the soluble human BACE1 catalytic domain. This assay monitors the increase of 620 nm fluorescence that resulted from BACE1 cleavage of an APPswedish APP^swe mutant peptide FRET substrate (QSY7-EISEVNLDAEFC-Europium-amide). This substrate contains an N-terminal QSY7 moiety that serves as a quencher of the C-terminal Europium fluorophore (620 nm Em). In the absence of enzyme activity, 620 nm fluorescence is low in the assay and increased linearly over 3 hours in the presence of uninhibited BACE1 enzyme. Inhibition of BACE1 cleavage of the QSY7-APP^swe-Eu substrate by inhibitors is manifested as a suppression of 620 nm fluorescence.
Varying concentrations of inhibitors at 3× the final desired concentration in a volume of 10 ul are preincubated with purified human BACE1 catalytic domain (3 nM in 10 μl) for 30 minutes at 30° C. in reaction buffer containing 20 mM Na-Acetate pH 5.0, 10% glycerol, 0.1% Brij-35 and 7.5% DSMO. Reactions are initiated by addition of 10 μl of 600 nM QSY7-APP^swe-Eu substrate (200 nM final) to give a final reaction volume of 30 μl in a 384 well Nunc HTRF plate. The reactions are incubated at 30° C. for 1.5 hours. The 620 nm fluorescence is then read on a Rubystar HTRF plate reader (BMG Labtechnologies) using a 50 millisecond delay followed by a 400 millisecond acquisition time window. Inhibitor IC50 values are derived from non-linear regression analysis of concentration response curves. Ki values are then calculated from IC50 values using the Cheng-Prusoff equation using a previously determined […] of 8 μM for the QSY7-APP^swe-Eu substrate at BACE1.

| Ki [1] [µM] | Ki [2] [µM] | inhibition at 10 µM [2] [%] | SMILES |
| --- | --- | --- | --- |
| 0.0725 | 0.363 | – | C[C@H]1C[C@@H]2[C@](c3ccccc3F)(CO1)NC(=N)C(C)(C)S2(=O)=O [Example 1, (4aS,7S,8aR)-4a-(2-fluorophenyl)-3-imino-2,2,7-trimethyloctahydropyrano[4,3-b][1,4]thiazine 1,1-dioxide] |
| 6.26 | – | 50 | C[C@@H]1C[C@@H]2[C@](c3ccccc3F)(CO1)NC(=N)C(C)(C)S2(=O)=O [Example 2, (4aS,7R,8aR)-4a-(2-fluorophenyl)-3-imino-2,2,7-trimethyloctahydropyrano[4,3-b][1,4]thiazine 1,1-dioxide] |
| 0.399 | 1.21 | – | C[C@H]1C[C@@H]2[C@](c3cc(Br)ccc3F)(CO1)NC(=N)C(C)(C)S2(=O)=O [Example 3, (4aS,7S,8aR)-4a-(5-bromo-2-fluorophenyl)-3-imino-2,2,7 trimethyloctahydropyrano[4,3-b][1,4]thiazine 1,1-dioxide] |
| 1.18 | 4.48 | – | C[C@@H]1C[C@@H]2[C@](c3cc(OCC4CC4)ccc3F)(CO1)NC(=N)C(C)(C)S2(=O)=O [Example 8, (4aS,7R,8aR)-4a-(5-(cyclopropylmethoxy)-2-fluorophenyl)-3-imino-2,2,7-trimethyloctahydropyrano[4,3-b][1,4]thiazine 1,1-dioxide] |
| 0.0114 | 0.0942 | – | C[C@H]1C[C@@H]2[C@](c3cc(OCC4CC4)ccc3F)(CO1)NC(=N)C(C)(C)S2(=O)=O [Example 9, (4aS,7S,8aR)-4a-(5-(cyclopropylmethoxy)-2-fluorophenyl)-3-imino-2,2,7-trimethyloctahydropyrano[4,3-b][1,4]thiazine 1,1-dioxide] |
| 0.249 | 0.681 | – | COc1ccc(F)c([C@]23CO[C@@H](C)C[C@H]2S(=O)(=O)C(C)(C)C(=N)N3)c1 [Example 10, (4aS,7S,8aR)-4a-(2-fluoro-5-methoxyphenyl)-3-imino-2,2,7-trimethyloctahydropyrano[4,3-b][1,4]thiazine 1,1-dioxide] |
| 8.4 | – | 27 | COc1ccc(F)c([C@]23CO[C@H](C)C[C@H]2S(=O)(=O)C(C)(C)C(=N)N3)c1 [Example 11, (4aS,7R,8aR)-4a-(2-fluoro-5-methoxyphenyl)-3-imino-2,2,7-trimethyloctahydropyrano[4,3-b][1,4]thiazine 1,1-dioxide] |

The remaining lines, values behind:

| SMILES | Ki [1] [µM] | Ki [2] [µM] | inhibition at 10 µM [2] [%] |
| --- | --- | --- | --- |
| CC(C)COc1ccc(F)c([C@]23CO[C@@H](C)C[C@H]2S(=O)(=O)C(C)(C)C(=N)N3)c1 [Example 4, (4aS,7S,8aR)-4a-(2-fluoro-5-isobutoxyphenyl)-3-imino-2,2,7-trimethyloctahydropyrano[4,3-b][1,4]thiazine 1,1-dioxide] | 0.0316 | 0.354 | – |
| C[C@H]1C[C@@H]2[C@](c3cc(Oc4ncccc4F)ccc3F)(CO1)NC(=N)C(C)(C)S2(=O)=O [Example 5, (4aS,7S,8aR)-4a-(2-fluoro-5-((3-fluoropyridin-2-yl)oxy)phenyl)-3-imino-2,2,7-trimethyloctahydropyrano[4,3-b][1,4]thiazine 1,1-dioxide] | 0.0049 | 0.0175 | – |
| C[C@H]1C[C@@H]2[C@](c3cc(Oc4cc(C#N)ccn4)ccc3F)(CO1)NC(=N)C(C)(C)S2(=O)=O [Example 6, 2-(4-fluoro-3-((4aS,7S,8aR)-3-imino-2,2,7-trimethyl-1,1-dioxidooctahydropyrano[4,3-b][1,4]thiazin-4a-yl)phenoxy)isonicotinonitrile] | 0.0192 | 0.0236 | – |
| C[C@H]1C[C@@H]2[C@](c3cc(Oc4ncc(F)cc4F)ccc3F)(CO1)NC(=N)C(C)(C)S2(=O)=O [Example 7, (4aS,7S,8aR)-4a-(5-((3,5-difluoropyridin-2-yl)oxy)-2-fluorophenyl)-3-imino-2,2,7-trimethyloctahydropyrano[4,3-b][1,4]thiazine 1,1-dioxide] | 0.0289 | 0.0536 | – |
